This is an account of results in article PMC6690746 (European journal of medicinal chemistry, 2018).

What all share (assay type): cell-based, human
One data set relates to T98G cells. Description: Antitumor activity. Conditions: for Fold increase in EC50 value compared with 8: versus compound 8 (87 nM); for Maximal killing activity: concentration not stated at this place; for EC50: Homo sapiens, read-out: Antitumor activity EC50.
Data set [1] relates to NCI-60 cancer cell line panel. Nature of the data set: NCI 60 cell screen. Conditions: for Loss in cell number: NCI-60, the 4 cell lines killed.
The next data set has as its system PD-GBM cells. Description: Cell-killing activity in PD-GBM cells, all subtypes together. Conditions: applied at 1–10 μM.
For a further data set, the system named is HepG2 (liver). Nature of the data set: Cell-killing activity. Particulars: HepG2, at 1–10 μM.
Where [2] appears, read: NCI-60, the 11 cell lines with halted proliferation.
Where [3] appears, read: NCI-60, the 41 cell lines with reduced proliferation rate.

“Also recorded” adds a separate entry of the source.

With `CCn1c2ccccc2c2cc(C(=O)Cc3ccccc3)ccc21` [Compound 13, 1-(9-ethyl-9H-carbazol-3-yl)-2-phenylethan-1-one], in the data set with T98G cells (72 h), the “Effect on T98G cells in words” value is “only weakly active at concentrations above five micromolar or essentially inactive; also recorded: did not significantly affect T98G cell viability”.
On to `CCn1c2ccccc2c2cc(C(=O)N3CCN(C)CC3)ccc21` [Compound 9, 9-ethyl-3-(4-methylpiperazine-1-carbonyl)-9H-carbazole], for which, in the data set on T98G cells (72 h), the “Effect on T98G cells in words” value is “only weakly active at concentrations above five micromolar or essentially inactive; also recorded: did not significantly affect T98G cell viability”.
Turning to `CCn1c2ccccc2c2cc(C(=O)c3cccc4c3CCCN4)ccc21` [Compound 23], in data set [1] (NCI-60 panel), the “Effect on NCI-60 cell lines in words” value is “did not significantly affect the viability and proliferation of any of the cell lines”; the “Growth inhibition: Delta” value is 10.42. Moreover, the “Growth inhibition: Mean” value in data set [1] (NCI-60 panel, over all cell lines) turned out to be 102.05. Further, in the data set with T98G cells (72 h), the “Effect on T98G cells in words” value was “only weakly active at concentrations above five micromolar or essentially inactive; also recorded: did not significantly affect T98G cell viability”.
With `CCn1c2ccccc2c2cc(C(=O)c3cccc4ncccc34)ccc21` [Compound 20, 9-ethyl-3-(quinoline-5-carbonyl)-9H-carbazole], the “Loss in cell number” value in data set [1] is given as 13% to 60%. Also, the Percent growth inhibition is reported as 9% to −1% in data set [1] (setting [2]) and 67% to 10% in data set [1] (setting [3]).
In the case of `CCCn1c2ccccc2c2cc(C(=O)c3ccc(C)c4ccccc34)ccc21` [Compound 16, 9-propyl-3-[(4-methylnaphthalen-1-yl)carbonyl]-9H-carbazole], the “Effect on T98G cells in words” value in the data set on T98G cells (72 h) was “only weakly active at concentrations above five micromolar or essentially inactive; also recorded: did not significantly affect T98G cell viability”. In the data set on T98G cells, the “Fold increase in EC50 value compared with 8” value (“Fold increase in EC50 value” below) is 115 fold.
Consider `CC[C@]1(O)C[C@@H]2CN(CCc3c([nH]c4ccccc34)[C@@](C(=O)OC)(c3cc4c(cc3OC)N(C)[C@H]3[C@@](O)(C(=O)OC)[C@H](OC(C)=O)[C@]5(CC)C=CCN6CC[C@]43[C@@H]65)C2)C1` [vinblastine, reference compound], for which, in the data set with T98G cells (72 h), the Maximal killing activity is 36.0% ± 2.3.
For the compound `CCn1c2ccccc2c2cc(C(=O)c3cccc4c3NCCC4)ccc21` [Compound 24, 9-ethyl-3-(1,2,3,4-tetrahydroquinoline-8-carbonyl)-9H-carbazole], in the data set with T98G cells (72 h), the “Effect on T98G cells in words” value is “only weakly active at concentrations above five micromolar or essentially inactive; also recorded: did not significantly affect T98G cell viability”.
Usually EC50 stands for the concentration giving half of the maximal effect. As to `COc1ccc(/C=C\c2cc(OC)c(OC)c(OC)c2)cc1O` [Compound 1, combretastatin A-4, reference compound], the Maximal killing in the data set with T98G cells (72 h, at 10 nM) is reported as 30.4% ± 2.1. The EC50 in the data set on T98G cells (72 h) was found to be 0.6 nM.
With `CCn1c2ccccc2c2cc(C(=O)N3CCCc4ccccc43)ccc21` [Compound 25, 9-ethyl-3-[(1,2,3,4-tetrahydroquinolin-1-yl)carbonyl]-9H-carbazole], the PD-GBM cells killed in the data set with PD-GBM cells was 95–100%. Besides, the “Activity in HepG2 cells in words” value in the data set with HepG2 (liver) is “inactive”.
`Cc1ccc(C(=O)c2ccc3c(c2)c2ccccc2n3CC(F)(F)F)c2ccccc12` [Compound 18, 3-(4-methylnaphthalene-1-carbonyl)-9-(2,2,2-trifluoroethyl)-9H-carbazole]: in the data set on T98G cells (72 h), the “Effect on T98G cells in words” value was “only weakly active at concentrations above five micromolar or essentially inactive” and the Maximal killing activity was 35–45%. Moreover, the “Fold increase in EC50 value” value with T98G cells turned out to be 64 fold.
Regarding `CCn1c2ccccc2c2cc(C(=O)c3ccc(C)c4ccccc34)ccc21` [Compound 8, 9-ethyl-3-[(4-methylnaphthalen-1-yl)carbonyl]-9H-carbazole], in data set [1], the “Loss in cell number” value is 13% to 60%. Further, the Percent growth inhibition is on record as 9% to −1% in data set [1] (setting [2]) and 67% to 10% in data set [1] (setting [3]). The Maximal killing activity in the data set on T98G cells (72 h) is given as 35–45%.
As for `COC(=O)Nc1nc2cc(C(=O)c3cccs3)ccc2[nH]1` [Compound 3, nocodazole, reference compound], the “Maximal killing (% ± SEM)” value with T98G cells (72 h, at 10 μM) was 45.6% ± 1.7. Besides, the EC50 with T98G cells (72 h) is 29 nM.
Turning to `CCn1c2ccccc2c2cc(C(O)c3ccc(C)c4ccccc34)ccc21` (stereo not drawn) [Compound 27, (9-ethyl-9H-carbazol-3-yl)(4-methylnaphthalen-1-yl)methanol], the “Loss in cell number” value in data set [1] is reported as 13% to 60%. The results for the Percent growth inhibition in data set [1] (setting [2]) and in data set [1] (setting [3]) were 9% to −1% and 67% to 10%, respectively. In addition, in the data set with T98G cells, the “Fold increase in EC50 value” value is on record as 6 fold.
On to `CCn1c2ccccc2c2cc(C(=O)c3cccc4ccccc34)ccc21` [Compound 14, 9-ethyl-3-(naphthalene-1-carbonyl)-9H-carbazole], for which the “Fold increase in EC50 value” value with T98G cells was found to be 20 fold.
As to `CCn1c2c(c3ccccc31)CN(C(=O)c1ccc(C)c3ccccc13)CC2` [Compound 35, 5-ethyl-2-[(4-methylnaphthalen-1-yl)carbonyl]-1H,2H,3H,4H,5H-pyrido[4,3-b]indole], the Maximal killing activity in the data set with T98G cells (72 h) was 35–45%.
Turning to `CCn1c2ccccc2c2cc(C(=S)c3ccc(C)c4ccccc34)ccc21` [Compound 26, 9-ethyl-3-(4-methylnaphthalene-1-carbothioyl)-9H-carbazole], the “Effect on T98G cells in words” value in the data set with T98G cells (72 h) is “only weakly active at concentrations above five micromolar or essentially inactive; also recorded: did not significantly affect T98G cell viability”.
